Laboratory results from patent publication EP2177604A1, “Methods for identifying potential CYP4 metabolites, inhibitors or prodrugs” (PomBio Tech GmbH, priority 2008, dated 2010).
Read-outs that look alike come from different tables or passages of the source.

Target: T1, human CYP4Z1 (Homo sapiens, UniProt Q86W10)
T1 sequence (Q86W10 1-505): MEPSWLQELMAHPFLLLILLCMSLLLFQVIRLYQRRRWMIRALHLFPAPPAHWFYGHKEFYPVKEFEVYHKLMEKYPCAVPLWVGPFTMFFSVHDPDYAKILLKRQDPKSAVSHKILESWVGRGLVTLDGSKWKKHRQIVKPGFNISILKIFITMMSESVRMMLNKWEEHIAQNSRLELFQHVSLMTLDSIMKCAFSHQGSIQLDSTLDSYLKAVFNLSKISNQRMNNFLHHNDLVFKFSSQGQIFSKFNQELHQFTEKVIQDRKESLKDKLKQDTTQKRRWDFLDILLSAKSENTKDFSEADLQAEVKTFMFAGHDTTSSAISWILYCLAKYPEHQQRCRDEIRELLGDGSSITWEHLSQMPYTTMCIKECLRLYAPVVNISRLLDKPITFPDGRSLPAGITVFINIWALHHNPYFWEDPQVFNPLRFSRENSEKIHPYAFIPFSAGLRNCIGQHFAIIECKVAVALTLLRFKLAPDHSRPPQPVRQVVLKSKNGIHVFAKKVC
Test: whole-cell biotransformation (substrate conversion) assay with fission yeast strains expressing CYP4Z1
Details: for metabolite formation / metabolism by human CYP4Z1: fission yeast strains AZ1 and AZ3, 1 mM substrate, 24 h at 30°C, HPLC (steroids, vitamin D, ebastine) or GC-MS (fatty acids)
Description: Possible substrates of human CYP4Z1 were tested by incubating the fission yeast strains AZ1 and AZ3 as well as the control strains NCYC2036 and CAD 62 with 1 mM substrate. […] Approximately 2*10^8 cells/mL were used per assay. Cells were grown in EMM medium containing 100 g/L glucose as well as the required supplements (leucine for AZ1 and CAD 62). Incubation was carried out either in 96 well microtiter plates or in 250 mL Erlenmeyer flasks with a cellulose stopper at a shaking velocity of 150 rpm for 24 h at 30°C.
Samples containing steroids as possible substrates were extracted with ethylacetate, evaporated and analyzed via HPLC (Alliance, Waters, USA) using a RP-18 column (Licrosphere 100, 5µM, Merck, Darmstadt) or a RP-8 column (Licrosphere 100, 5µM, Merck, Darmstadt). The column temperature was kept constant at 40°C. The mobile phase used for each sample is outlined in Suppl. Table. 1. When available, positive control reactions were carried out using strains expressing a P450 that is known to metabolize the respective substrate.
Fatty acid conversions were analyzed via GC-MS as previously described. Fatty acid extraction from S.pombe cells was performed using the Bligh and Dyer method.. Extracted samples were then evaporated to dryness, dissolved in a mixture of 500 µl methanol/toluene/sulphuric acid (50:50:2 V/V) and incubated at 55 °C overnight. 400µl of a 0.5 M […], 2 M KCl solution were added to the samples which were then centrifuged at RT, transferred to a GC vial and derivatised with 25 µl N-Methyl-N-(trimethylsilyl)trifluoroacetamide (37 °C for 1 hour). Fatty acid analysis was performed on an Agilent 6890N gas chromatograph coupled to an Agilent 5973N mass selective detector and equipped with a non-polar J&W DB-5HT capillary column, as described before.

| main hydroxylation position (MS fragmentation analysis) | other hydroxylated fatty acids detected besides the main product | SMILES | main hydroxylation position (MS fragmentation analysis) (CYP4Z1 whole-cell biotransformation, GC-MS, main product) | other hydroxylated fatty acids detected besides the main product (CYP4Z1 whole-cell biotransformation, GC-MS, minor products) | metabolite formation / metabolism by human CYP4Z1 |
| --- | --- | --- | --- | --- | --- |
| predominantly ω-4-hydroxylated | ω-2-, ω-3-, ω-5-hydroxylated | CCCCCCCCCCCC(=O)O [lauric acid] |  |  |  |
|  |  | CCCCCCCCCCCCCC(=O)O [myristic acid] | mainly hydroxylated at position ω-2 | ω-3-, ω-4-, ω-5-hydroxlated | able to hydroxylate |
|  |  | C=C1CC[C@H](O)C/C1=C/C=C1\CCC[C@]2(C)[C@@H]([C@H](C)CCCC(C)C)CC[C@@H]12 [vitamin D3] |  |  | not metabolized |
